Results from patent publication US11667675B2, “MASP inhibitory compounds and uses thereof” (Bayer Aktiengesellschaft, priority 2019, dated 2023).
Where a name gives a salt, the structure may show the parent alone.

How the values were obtained:
[1] = biological target: T1, human MASP1 (Homo sapiens, UniProt P48740); assay: Biochemical human MASP1 assay (FRET substrate); settings: average IC50
T1 construct: Ig-kappa secretion signal (N, cleaved yes); made in house; host or cells: HEK293 (ATCC No. CRL-1573)
T1 sequence (P48740 297-448): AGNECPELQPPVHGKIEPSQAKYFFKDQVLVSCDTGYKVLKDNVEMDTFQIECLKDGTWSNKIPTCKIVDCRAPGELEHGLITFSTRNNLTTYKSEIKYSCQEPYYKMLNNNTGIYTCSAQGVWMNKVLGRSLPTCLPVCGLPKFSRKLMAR
T1 sequence (P48740 449-699): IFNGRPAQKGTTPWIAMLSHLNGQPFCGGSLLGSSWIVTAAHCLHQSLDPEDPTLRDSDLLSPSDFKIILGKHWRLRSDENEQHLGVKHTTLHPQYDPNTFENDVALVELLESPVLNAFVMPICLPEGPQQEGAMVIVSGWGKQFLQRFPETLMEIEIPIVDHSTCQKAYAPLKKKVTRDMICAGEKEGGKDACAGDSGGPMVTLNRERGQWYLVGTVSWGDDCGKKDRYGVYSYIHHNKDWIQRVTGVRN
Source text: 2.1 Recombinant Expression and Protein Production of Recombinant Human MASP1 and MASP2 Active Proteases.
The MASP1 or MASP2 expression vectors were transfected into the HEK293 (ATCC No. CRL-1573) cell line using Lipofectamine LTX® Reagent (Thermo-Fischer), as described by the manufacturer. […] The MASP1 and MASP2 proteins were purified from the conditioned media by affinity chromatography on Ni-NTA Superflow resin (Qiagen) as described by the manufacturer.
2.2 Biochemical Human MASP1 Assay
Recombinant human MASP1 enzyme produced in the HEK 293 cells was diluted in the reaction buffer (50 mM HEPES pH 8,0; 100 mM NaCl; 0.01% CHAPS; 0.5 mM Gluthathione) to the concentration of 20 nM and 25 μl was transferred into each single well of 384-well white microtiter plate (Greiner Bio One 781075). 1 μl of the inhibitor compound solution (dissolved in DMSO, at the corresponding concentration) or pure DMSO as a control was added to the same wells. […] The microtiter plate was incubated for 60-120 min at the temperature of 32 C. The increase of fluorescence intensity was measured in appropriate fluorescence plate reader (e.g. TECAN Ultra) using excitation wavelength of 320 nm and emission wavelength of 420 nm. IC50 values were calculated from percentage of inhibition of human MASP1 activity as a function of test compound concentration.

[2] = test system: Human C3-[…]; assay: C3 deposition assay, human serum on mannan-coated plates; assay type: biochemical; settings: average IC50, read-out: Human C3-DEPOSITION SERUM IC50
Procedure: (§1) 3. C3 Deposition Assay (Human, Rat, Mouse, Dog, Mini-Pig)
(§2) The C3 deposition assay was conducted essentially as described (reference). Multi well plates (Greiner-Nunc 384 Maxi Sorp #464718) were coated over night with Mannan from Saccharomyces cerevisiae (Sigma M7504, 10 μg/mL in 0.05 M carbonate-bicarbonate buffer, pH 9.6) at 4° C. Wells were washed three times with TBS and subsequently incubated for 2 hours with 50 μL of 1% bovine serum albumin (BSA) in Tris-buffered saline (TBS) at 37° C. in order to block non-specific binding. After this step and each of the following incubation steps wells were washed three times with C3 wash buffer (TBS; 0.05% Tween 20; 5 mM CaCl2). […] When appropriately developed the color reaction was stopped by addition of 25 μL of stop solution (Sigma S5814) and quantified on a photometer by measuring absorption at a wavelength of 450 nm. Antibodies were diluted in C3 wash buffer supplemented with 0.5% BSA.

[3] = biological target: T2, rat MASP1 (Rattus norvegicus, UniProt Q8CHN8); assay: Biochemical rat MASP1 assay (FRET substrate); settings: average IC50; recombinant rat MASP1, FRET substrate
T2 construct: Ig-kappa secretion signal (N, cleaved yes); made in house; host or cells: HEK293 (ATCC No. CRL-1573)
T2 sequence (Q8CHN8 302-453 limits assumed): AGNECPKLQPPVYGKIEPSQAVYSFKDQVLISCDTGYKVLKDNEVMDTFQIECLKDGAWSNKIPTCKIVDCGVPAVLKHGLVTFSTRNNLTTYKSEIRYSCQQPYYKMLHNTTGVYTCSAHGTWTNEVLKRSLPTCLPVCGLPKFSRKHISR
T2 sequence (Q8CHN8 454-704 limits assumed): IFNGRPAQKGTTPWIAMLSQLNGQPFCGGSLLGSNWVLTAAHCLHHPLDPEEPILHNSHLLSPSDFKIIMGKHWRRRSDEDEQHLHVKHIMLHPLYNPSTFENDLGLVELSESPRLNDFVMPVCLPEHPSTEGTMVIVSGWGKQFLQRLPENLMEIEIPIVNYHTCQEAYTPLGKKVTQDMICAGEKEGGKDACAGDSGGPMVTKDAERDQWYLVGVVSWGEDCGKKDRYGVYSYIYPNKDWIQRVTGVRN
Source text: (§3) 4. Biochemical Rat MASP-1 and MASP-2 Assay
(§4) 4.1 Recombinant Expression and Protein Production of Recombinant Human and Rat MASP1 and MASP2 Active Proteases.
A truncated cDNA sequence of rat MASP1 encoding the fragment corresponding to the amino acids 302-704 with an C-terminal His Tag and N-terminal Ig-kappa secretion signal (SEQ ID No: 4) was subcloned into the mammalian expression vector pcDNA3.1 (Invitrogen).
(§5) The MASP1 or MASP2 expression vectors were transfected into the HEK293 (ATCC No. CRL-1573) cell line using Lipofectamine LTX® Reagent (Thermo-Fischer), as described by the manufacturer. The mature form of the recombinant rat MASP1 and MASP2 proteases were secreted into the culture medium. The MASP1 and MASP2 proteins were purified from the conditioned media by affinity chromatography on Ni-NTA Superflow resin (Qiagen) as described by the manufacturer.
4.2 Biochemical Rat MASP1 Assay.
Recombinant rat MASP1 enzyme produced in the HEK 293 cells was diluted in the reaction buffer (50 mM HEPES pH 8,0; 100 mM NaCl; 0.01% CHAPS; 0.5 mM Gluthathione) to the concentration of 4 nM and 25 μl was transferred into each single well of 384-well white microtiter plate (Greiner Bio One 781075). 1 μl of the inhibitor compound solution (dissolved in DMSO, at the corresponding concentration) or pure DMSO as a control was added to the same wells. The enzymatic reaction was initiated by addition of 25 μl of 40 μM solution of the FRET substrate Dabcyl-[…]-Glu(Edans)-NH2 (SEQ ID NO: 8); (Dabcyl—4-((4-(dimethylamino)phenyl)azo)benzoic acid; Edans—5-[(2-Aminoethyl) amino]naphthalene-1-sulfonyl; custom synthesis by Jerini Peptide Technologies, Berlin) in the reaction buffer. The microtiter plate was incubated for 60-120 min at the temperature of 32 C. The increase of fluorescence intensity was measured in appropriate fluorescence plate reader (e.g. TECAN Ultra) using excitation wavelength of 340 nm and emission wavelength of 490 nm. IC50 values were calculated from percentage of inhibition of rat […] activity as a function of test compound concentration.

[4] = biological target: T3, rat MASP2 (Rattus norvegicus, UniProt Q9JJS8); assay: Biochemical rat MASP2 assay (FRET substrate); settings: average IC50; recombinant rat MASP2, FRET substrate
T3 construct: Ig-kappa secretion signal (N, cleaved yes); made in house; host or cells: HEK293 (ATCC No. CRL-1573)
Source text: as §3, §4, §5
4.3 Biochemical Rat MASP2 Assay.
Recombinant rat MASP2 enzyme produced in the HEK 293 cells was diluted in the reaction buffer (50 mM HEPES pH 8,0; 100 mM NaCl; 0.01% CHAPS; 0.5 mM Gluthathione) to the concentration of 20 nM and 25 μl was transferred into each single well of 384-well white microtiter plate (Greiner Bio One 781075). 1 μl of the inhibitor compound solution (dissolved in DMSO, at the corresponding concentration) or pure DMSO as a control was added to the same wells. The enzymatic reaction was initiated by addition of 25 μl of 30 μM solution of the FRET substrate Abz-IEGRTSED-(Lys)Dnp-NH2 (SEQ ID NO: 9); (ABZ—2-aminobenzoyl; DNP_2,4-dinitrophenyl; custom synthesis by Jerini Peptide Technologies, Berlin) in the reaction buffer. The microtiter plate was incubated for 60-120 min at the temperature of 32 C. The increase of fluorescence intensity was measured in appropriate fluorescence plate reader (e.g. TECAN Ultra) using excitation wavelength of 320 nm and emission wavelength of 420 nm. IC50 values were calculated from percentage of inhibition of rat […] activity as a function of test compound concentration.

[5] = test system: rat C3-[…]; assay: C3 deposition assay, rat serum on mannan-coated plates; assay type: biochemical; settings: average IC50
Procedure: as §1, §2

T3 sequence (Q9JJS8 296-443): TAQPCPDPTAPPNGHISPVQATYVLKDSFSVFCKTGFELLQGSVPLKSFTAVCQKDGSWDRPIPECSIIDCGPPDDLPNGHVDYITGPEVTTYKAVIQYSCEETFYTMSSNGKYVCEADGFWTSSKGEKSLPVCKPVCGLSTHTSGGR
T3 sequence (Q9JJS8 444-685): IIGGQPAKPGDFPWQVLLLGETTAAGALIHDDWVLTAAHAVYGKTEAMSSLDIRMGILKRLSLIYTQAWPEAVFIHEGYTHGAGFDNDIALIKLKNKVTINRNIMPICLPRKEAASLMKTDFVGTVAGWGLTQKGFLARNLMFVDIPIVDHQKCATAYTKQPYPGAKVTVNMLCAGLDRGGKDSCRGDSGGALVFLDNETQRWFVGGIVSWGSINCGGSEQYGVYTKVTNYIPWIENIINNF

**Q.** Which IC50 [1] does the source give for `CC[C@H](C)[C@H](NC(=O)[C@H](C)N)C(=O)N[C@H]1CSSC(C)(C)[C@@H](C(=O)N[C@H](C(=O)N2CCC[C@H]2C(=O)N[C@@H](CC(=O)O)C(=O)O)[C@@H](C)CC)NC(=O)[C@H]([C@@H](C)CC)NC(=O)[C@@H]2C[C@@H]3CCCC[C@@H]3N2C(=O)[C@@H]2CCCN2C(=O)[C@H](CC(C)C)NC(=O)[C@H](CO)NC(=O)[C@H](CCCNC(=N)N)NC(=O)[C@H](CO)NC1=O` [Example 29, AIC+SRSLP-(Oic)-I-(Pen)+IPD-OH (HCl Salt)] here?
**A.** Its IC50 is 2.45 nM.

**Q.** What about the IC50 [2] of the same molecule?
**A.** Its IC50 is 6.99 nM.

**Q.** What about the IC50 [3] of the same molecule?
**A.** Its IC50 is 10.5 nM.

**Q.** What about the IC50 [4] of the same molecule?
**A.** Its IC50 is 17.4 nM.

**Q.** What about the IC50 [5] of the same molecule?
**A.** Its IC50 is 196 nM.
